“And” between values parts separate entries of the source, which are not always exact repeats. Equal entries are not always repeated.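 96-well plates; 48 h exposure; 5 concentrations. Endpoints by linear interpolation between flanking doses. Not reached: highest tested concentration assigned. GI50 marks 50% less growth. At the TGI there is no net growth.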
Tests used:
Experiment in all cases: NCI-60 cell line screen, 48 h
HCT-116 colon = system: HCT-116 colon
U251 CNS = system: U251 CNS
K-562 leukemia = system: K-562 leukemia
LOX IMVI melanoma = system: LOX IMVI melanoma
SNB-75 CNS = system: SNB-75 CNS
786-0 renal = system: 786-0 renal
EKVX NSCLC = system: EKVX NSCLC
BT-549 breast = system: BT-549 breast
UACC-62 melanoma = system: UACC-62 melanoma
T-47D breast = system: T-47D breast

Row | SMILES | GI50 (HCT-116 colon) | TGI (HCT-116 colon) | GI50 (U251 CNS) | TGI (U251 CNS) | GI50 (K-562 leukemia) | TGI (K-562 leukemia) | GI50 (LOX IMVI melanoma) | TGI (LOX IMVI melanoma) | GI50 (SNB-75 CNS) | TGI (SNB-75 CNS) | GI50 (786-0 renal) | TGI (786-0 renal) | GI50 (EKVX NSCLC) | TGI (EKVX NSCLC) [µM] | GI50 (BT-549 breast) | TGI (BT-549 breast) | GI50 (UACC-62 melanoma) [µM] | TGI (UACC-62 melanoma) [µM] | GI50 (T-47D breast) | TGI (T-47D breast)
1 | NC1CCN(c2nc(Nc3cccc(C(F)(F)F)c3)c3c(=O)[nH]ccc3n2)CC1 | 1090 nM | 2.3 µM | 1730 nM | 3.55 µM | 1180 nM | 3.21 µM | 1330 nM | 2.72 µM | 1770 nM | 3.19 µM | 1240 nM | 2.55 µM | 1.35 µM | 3.16 | 1.59 µM | 3 µM | 1.83 | 3.51 | 1.56 µM | 3.26 µM
2 | OCC1OC(n2ccc3c(NO)ncnc32)C(O)C1O (stereo not given) | 29.6 nM | 1.03 µM | 168 nM | > 20.2 µM | 201 nM | 4.53 µM | 66.5 nM | 1.27 µM | 172 nM | 1.82 µM | 239 nM | 1.1 µM | 0.241 µM | 0.994 | 0.193 µM | 0.764 µM | 0.128 | 0.326 | 0.169 µM | 1.96 µM
3 | COCCOC(=O)NC(=O)Nc1ccc(/C(=N/O)c2ccc(Cl)cc2)cc1 | 112 nM | 23.6 µM | 120 nM | 33 µM | 63.3 nM | 31.9 µM | 144 nM | 23.7 µM | 129 nM | 7.94 µM | 249 nM | 25.7 µM | 0.161 µM | > 89.8 | 0.58 µM | 39.6 µM | 0.109 | 15.8 | 8.82 µM | 50.5 µM
4 | Clc1ccc2[nH]cc(-c3nc(-c4c[nH]c5ncccc45)cs3)c2c1 | 3230 nM | 13.7 µM | 3170 nM | 13.2 µM | 2420 nM | > 100 µM | 2710 nM | 12.1 µM | 3250 nM | 35.3 µM | 2340 nM | 5.89 µM | 2.16 µM | 22.3 | 4.85 µM | 17.1 µM | 4 | 16.5 | 4.88 µM | 33.7 µM
5 | Cn1ncc2c(N)nc(N3CCCCC3)nc21 | 45300 nM | > 100 µM | 30700 nM | > 100 µM | 62000 nM | > 100 µM | 22700 nM | 51.4 µM | 29700 nM | > 100 µM | 69300 nM | > 100 µM | 91.2 µM | > 100 | 31.9 µM | > 100 µM | 19.6 | 37.3 | 3.75 µM | 34.6 µM
6 | N#Cc1c(-c2ccccc2)cc(-c2ccc(Nc3nc(Nc4ccc(Cl)cc4)nc(Nc4ccc(Cl)cc4)n3)cc2)nc1N | 1480 nM | 3 µM | 2630 nM | 10.2 µM | 2150 nM | 7.59 µM | 1850 nM | 4.33 µM | 2650 nM | 14.4 µM | 1910 nM | 3.46 µM | 16.6 µM | 48.8 | 5.2 µM | 24.2 µM | 5.56 | 45.4 | 1.6 µM | 4.37 µM
7 | Cc1nc2sc(C(=O)Nc3cccc4ccccc34)c(N)c2cc1C(=O)c1ccccc1 | 1680 nM | > 50 µM | 1970 nM | > 50 µM | 930 nM | > 50 µM | 2560 nM | > 50 µM | 1040 nM | > 50 µM | 2380 nM | > 50 µM | 2.95 µM | > 50 | 1.87 µM | > 50 µM | 2.42 | > 50 | 3.64 µM | > 50 µM
8 | COc1ccccc1NC(=O)n1nc(N)c2ccccc21 | > 71700 nM | > 100 µM | 74100 nM | > 100 µM | 99800 nM | > 100 µM | 82000 nM | > 100 µM | 37000 nM | > 100 µM | > 84000 nM | > 100 µM | 55.9 µM | > 100 | 39.3 µM | > 100 µM | > 100 | > 100 | 12.1 µM | > 100 µM
9 | OCCSCc1ccccc1 | – | > 100 µM | – | > 100 µM | – | > 100 µM | – | > 100 µM | – | > 100 µM | – | > 100 µM | – | > 100 | – | > 100 µM | – | > 100 | – | > 100 µM
10 | CCOC(=O)C(Cc1c[nH]c2ccc(N(CCCl)CCCl)cc12)(NC(C)=O)C(=O)OCC | 11700 nM and 10900 nM | 31.3 µM and 37.9 µM | 10600 nM and 7880 nM | 35.4 µM and 35.3 µM | 22700 nM and 12200 nM | 57.5 µM and 47.2 µM | 7090 nM and 4880 nM | 24.6 µM and 35.3 µM | 11500 nM and 6530 nM | 67.9 µM and 57 µM | 4780 nM and 3710 nM | 23.3 µM and 21.8 µM | 52.2 µM and 38.7 µM | 403 | 16.3 µM and 12.2 µM | 39.3 µM and 50.2 µM | 12.1 | 26 | 9.31 µM and 6.59 µM | 51.9 µM and > 71.8 µM
11 | CN1CCCN(C)C1c1cc([N+](=O)[O-])ccc1O | – | > 100 µM | – | > 100 µM | – | > 100 µM | – | > 100 µM | – | > 100 µM | – | > 100 µM | – | > 100 | – | > 100 µM | – | 44.3 | – | > 100 µM
12 | CCCCCCCCCCN(CCCCCCCCCC)CC(=O)c1ccc2cc(Br)c3ccccc3c2c1 | 1670 nM | 3.17 µM | 1910 nM | 3.55 µM | 2050 nM | 4.84 µM | 1750 nM | 3.32 µM | 2100 nM | 5.45 µM | 1810 nM | 3.39 µM | 5.31 µM | 19.8 | 10.9 µM | 23.6 µM | 1.61 | 3.35 | 2.44 µM | 5.98 µM
13 | O=c1nc(Nc2cccc(Cl)c2)oc2cc(Cl)oc(=O)c12 | 10700 nM | 41.3 µM | 5080 nM | 20.6 µM | 16400 nM | > 100 µM | 11900 nM | > 100 µM | 6960 nM | 21.4 µM | 20200 nM | 66.4 µM | 16.9 µM | 39.8 | 22.5 µM | 95.7 µM | 5.79 | 21.3 | 5.29 µM | 27.1 µM
14 | CCCCNN | – | > 100 µM | – | > 100 µM | – | > 100 µM | – | > 100 µM | – | > 100 µM | – | > 100 µM | – | > 100 | – | > 100 µM | – | > 100 | – | > 100 µM

— PubChem BioAssay (NCI)
